# Measured values taken from patent US12559506B2, “Indazole based compounds and associated methods of use” (Arvinas Operations, Inc., priority 2021, dated 2026).
# Like-named read-outs stand apart in the source and are kept apart here.
# Molecular target: T1, LRRK2 (endogenous, HiBit tagged) (Homo sapiens, UniProt Q5S007)
# T1 construct: endogenous in cells; host or cells: HEK293 cells with HiBit knock-in at the endogenous LRRK2 locus, stably expressing firefly luciferase
# Assay: Endogenous LRRK2 degradation assay, endogenous gene C-terminally HiBit-tagged in HEK293 cells (Nano-Glo Dual Luciferase)
# Type: cell-based
# In short: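 LRRK2-HiBit quantified via Nano-Glo Dual Luciferase in HEK293 knock-in cells co-expressing firefly luciferase, after 24 h exposure to compound (1 μM final top, 1:3, 11 points). Values normalised to DMSO median per plate and curve-fitted; Alamar Blue viability run alongside.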
# [1] = endogenous HiBit-tagged LRRK2 in HEK293 cells, 24 hours treatment, read-out: Endogenous WT DC50
# [2] = endogenous HiBit-tagged LRRK2 in HEK293 cells, 24 hours treatment, read-out: Endogenous WT Dmax
# [3] = endogenous HiBit-tagged LRRK2 in HEK293 cells, 24 hours treatment, read-out: **Endogenous WT Dmax (%)
# [4] = endogenous HiBit-tagged LRRK2 in HEK293 cells, 24 hours treatment, read-out: *Endogenous WT DC50
# T1 sequence (Q5S007 whole entry): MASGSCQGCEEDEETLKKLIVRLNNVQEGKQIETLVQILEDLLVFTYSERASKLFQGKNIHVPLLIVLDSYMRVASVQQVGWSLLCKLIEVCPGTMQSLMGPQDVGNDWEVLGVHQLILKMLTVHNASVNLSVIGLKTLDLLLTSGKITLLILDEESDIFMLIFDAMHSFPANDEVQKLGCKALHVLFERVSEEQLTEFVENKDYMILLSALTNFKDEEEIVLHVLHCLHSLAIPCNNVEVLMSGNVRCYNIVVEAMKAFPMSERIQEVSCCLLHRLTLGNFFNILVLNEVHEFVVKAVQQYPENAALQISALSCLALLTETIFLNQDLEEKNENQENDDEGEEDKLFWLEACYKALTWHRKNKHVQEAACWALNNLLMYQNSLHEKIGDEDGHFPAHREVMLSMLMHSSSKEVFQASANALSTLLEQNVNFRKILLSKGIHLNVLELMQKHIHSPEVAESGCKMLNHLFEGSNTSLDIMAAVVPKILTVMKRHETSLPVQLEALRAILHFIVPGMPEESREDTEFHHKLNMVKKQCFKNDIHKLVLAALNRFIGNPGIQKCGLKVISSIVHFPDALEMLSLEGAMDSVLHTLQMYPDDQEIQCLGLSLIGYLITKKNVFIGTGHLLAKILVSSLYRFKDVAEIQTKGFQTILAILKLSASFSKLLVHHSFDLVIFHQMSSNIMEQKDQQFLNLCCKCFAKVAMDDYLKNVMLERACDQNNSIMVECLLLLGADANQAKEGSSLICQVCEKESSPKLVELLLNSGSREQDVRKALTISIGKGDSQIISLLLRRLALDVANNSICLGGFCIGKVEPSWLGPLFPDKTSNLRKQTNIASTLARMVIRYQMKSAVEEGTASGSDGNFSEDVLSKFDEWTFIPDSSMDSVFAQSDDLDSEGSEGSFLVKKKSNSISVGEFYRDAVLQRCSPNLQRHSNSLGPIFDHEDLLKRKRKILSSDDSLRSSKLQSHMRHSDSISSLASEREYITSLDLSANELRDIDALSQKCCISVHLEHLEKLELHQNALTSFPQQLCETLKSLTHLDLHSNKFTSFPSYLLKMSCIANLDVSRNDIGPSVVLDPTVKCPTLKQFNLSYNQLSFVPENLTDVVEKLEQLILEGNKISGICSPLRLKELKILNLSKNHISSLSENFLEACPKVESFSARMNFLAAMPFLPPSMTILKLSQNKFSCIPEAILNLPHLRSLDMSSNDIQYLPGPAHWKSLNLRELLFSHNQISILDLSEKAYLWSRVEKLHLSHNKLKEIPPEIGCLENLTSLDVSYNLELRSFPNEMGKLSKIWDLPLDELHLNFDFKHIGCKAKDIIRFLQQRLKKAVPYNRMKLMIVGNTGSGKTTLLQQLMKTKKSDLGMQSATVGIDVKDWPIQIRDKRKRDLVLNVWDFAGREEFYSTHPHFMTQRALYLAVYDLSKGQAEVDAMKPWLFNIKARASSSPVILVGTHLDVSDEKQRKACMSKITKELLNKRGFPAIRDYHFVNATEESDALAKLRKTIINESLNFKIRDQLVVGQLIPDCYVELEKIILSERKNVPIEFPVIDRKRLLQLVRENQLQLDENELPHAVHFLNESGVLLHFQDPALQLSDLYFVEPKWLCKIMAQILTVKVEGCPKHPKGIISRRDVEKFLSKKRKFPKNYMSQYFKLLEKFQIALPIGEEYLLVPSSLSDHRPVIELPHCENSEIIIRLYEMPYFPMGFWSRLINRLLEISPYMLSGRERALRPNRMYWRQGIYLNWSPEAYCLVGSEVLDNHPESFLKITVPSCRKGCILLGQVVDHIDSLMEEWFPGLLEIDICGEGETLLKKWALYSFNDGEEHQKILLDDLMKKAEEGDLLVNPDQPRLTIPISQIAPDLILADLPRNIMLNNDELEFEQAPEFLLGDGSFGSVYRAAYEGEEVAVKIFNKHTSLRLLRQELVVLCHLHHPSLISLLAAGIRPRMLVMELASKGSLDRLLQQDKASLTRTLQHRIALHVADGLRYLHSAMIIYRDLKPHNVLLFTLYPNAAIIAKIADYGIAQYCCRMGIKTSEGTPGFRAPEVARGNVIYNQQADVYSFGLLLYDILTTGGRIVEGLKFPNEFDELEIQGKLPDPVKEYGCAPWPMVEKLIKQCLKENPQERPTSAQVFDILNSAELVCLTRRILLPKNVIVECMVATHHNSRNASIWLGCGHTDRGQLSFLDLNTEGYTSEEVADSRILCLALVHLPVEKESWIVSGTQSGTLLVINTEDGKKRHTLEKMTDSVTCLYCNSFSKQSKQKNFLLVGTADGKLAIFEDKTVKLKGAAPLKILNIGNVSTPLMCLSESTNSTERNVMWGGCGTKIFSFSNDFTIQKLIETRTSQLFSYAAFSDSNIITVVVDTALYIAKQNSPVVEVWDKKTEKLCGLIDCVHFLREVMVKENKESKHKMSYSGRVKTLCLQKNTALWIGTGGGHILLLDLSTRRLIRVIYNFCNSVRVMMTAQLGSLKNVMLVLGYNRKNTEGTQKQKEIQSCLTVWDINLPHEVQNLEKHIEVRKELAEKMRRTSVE
SMILES,DC50 [1] [µM],Dmax [2] [%],Dmax [3] [%],DC50 [4] [µM],also measured
"COc1cc2c(cc1N1CCC(CN3CCC(F)(CN4CCN(c5cc(-c6[nH]nc7ccc(OC8(C)CC8)cc67)ncn5)CC4)CC3)CC1)CN(C1CCC(=O)NC1=O)C2=O (centres unmarked) [Compound 198, 3-[5-[4-[[4-fluoro-4-[[4-[6-[5-(1-methylcyclopropoxy)-2H-indazol-3-yl]pyrimidin-4-yl]piperazin-1-yl]methyl]-1-piperidyl]methyl]-1-piperidyl]-6-methoxy-1-oxo-isoindolin-2-yl]piperidine-2,6-dione]",–,–,–,–,"Dmax (endogenous HiBit-tagged LRRK2, HEK293 cells, 24 hours, read-out: **Endogenous WT Dmax (%)): ≥ 70%; DC50 (endogenous HiBit-tagged LRRK2, HEK293 cells, 24 hours, read-out: *Endogenous WT DC50): < 0.01 µM"
"CC1(Oc2ccc3n[nH]c(-c4cc(N5CCC(COC6CCN(C(=O)C7CCN(c8ccc9c(c8)C(=O)N(C8CCC(=O)NC8=O)C9=O)CC7)CC6)CC5)ncn4)c3c2)CC1 (centres unmarked) [Compound 62, 2-(2,6-dioxo-3-piperidyl)-5-[4-[4-[[1-[6-[5-(1-methylcyclopropoxy)-2H-indazol-3-yl]pyrimidin-4-yl]-4-piperidyl]methoxy]piperidine-1-carbonyl]-1-piperidyl]isoindoline-1,3-dione]",–,–,–,–,"Dmax (endogenous HiBit-tagged LRRK2 in HEK293 cells, 24 hours, read-out: **Endogenous WT Dmax (%)): ≥ 70%; DC50 (endogenous HiBit-tagged LRRK2 in HEK293 cells, 24 hours, read-out: *Endogenous WT DC50): < 0.01 µM"
"CC1(Oc2ccc3[nH]nc(-c4cc(N5CCC(CN6C7CC6CN(CC6CCN(c8ccc9c(c8F)CN(C8CCC(=O)NC8=O)C9=O)CC6)C7)CC5)ncn4)c3c2)CC1 (centres unmarked) [Compound 237, 3-{4-fluoro-5-[4-({6-[(1-{6-[5-(1-methylcyclopropoxy)-1H-indazol-3-yl]pyrimidin-4-yl}piperidin-4-yl)methyl]-3,6-diazabicyclo[3.1.1]heptan-3-yl}methyl)piperidin-1-yl]-1-oxo-2,3-dihydro-1H-isoindol-2-yl}piperidine-2,6-dione]",< 0.01,≥ 70,–,–,–
"COc1c(N2CCC(O[C@H]3C[C@H](N4CC5(CCN(c6cc(-c7[nH]nc8ccc(OC9(C)CC9)cc78)ncn6)CC5)C4)C3)CC2)ccc2c1CN(C1CCC(=O)NC1=O)C2=O (some centres unmarked) [Compound 347, 3-(4-methoxy-1-oxo-5-{4-[(1r,3r)-3-(7-{6-[5-(1-methylcyclopropoxy)-2H-indazol-3-yl]pyrimidin-4-yl}-2,7-diazaspiro[3.5]nonan-2-yl)cyclobutoxy]piperidin-1-yl}-2,3-dihydro-1H-isoindol-2-yl)piperidine-2,6-dione]",–,–,50 to 70,< 0.01,–
"CC1(Oc2ccc3n[nH]c(-c4cc(N5CC6(CCN([C@H]7C[C@H](OC8CCN(c9ccc%10c(c9F)CN(C9CCC(=O)NC9=O)C%10=O)CC8)C7)CC6)C5)ncn4)c3c2)CC1 (some centres unmarked) [Compound 304, 3-(4-fluoro-1-oxo-5-{4-[(1r,3r)-3-(2-{6-[5-(1-methylcyclopropoxy)-2H-indazol-3-yl]pyrimidin-4-yl}-2,7-diazaspiro[3.5]nonan-7-yl)cyclobutoxy]piperidin-1-yl}-2,3-dihydro-1H-isoindol-2-yl)piperidine-2,6-dione]",–,–,50 to 70,< 0.01,–

# Continued, in another order:
DC50 [1] [µM],Dmax [2] [%],Dmax [3] [%],DC50 [4] [µM],SMILES,also measured
< 0.01,≥ 70,–,–,"CC1(Oc2ccc3[nH]nc(-c4cc(N5CCC(CN6CCN(CC7CCN(c8ccc9c(c8Cl)CN(C8CCC(=O)NC8=O)C9=O)CC7)CC6)CC5)ncn4)c3c2)CC1 (centres unmarked) [Compound 239, 3-[4-chloro-5-[4-[[4-[[1-[6-[5-(1-methylcyclopropoxy)-1H-indazol-3-yl]pyrimidin-4-yl]-4-piperidyl]methyl]piperazin-1-yl]methyl]-1-piperidyl]-1-oxo-isoindolin-2-yl]piperidine-2,6-dione]",–
–,–,≥ 70,< 0.01,"CC1(Oc2ccc3n[nH]c(-c4cc(N5CCC(CN6CC(F)(CN7CCN(c8ccc9c(c8F)CN(C8CCC(=O)NC8=O)C9=O)CC7)C6)CC5)ncn4)c3c2)CC1 (centres unmarked) [Compound 301, 3-{4-fluoro-5-[4-({3-fluoro-1-[(1-{6-[5-(1-methylcyclopropoxy)-2H-indazol-3-yl]pyrimidin-4-yl}piperidin-4-yl)methyl]azetidin-3-yl}methyl)piperazin-1-yl]-1-oxo-2,3-dihydro-1H-isoindol-2-yl}piperidine-2,6-dione]",–
–,–,50 to 70,< 0.01,"COc1c(N2CC3(CCN(CCC4CCN(c5cc(-c6n[nH]c7ccc(OC8(C)CC8)cc67)ncn5)CC4)CC3(F)F)C2)ccc2c1CN(C1CCC(=O)NC1=O)C2=O (centres unmarked) [Compound 341, 3-(5-{5,5-difluoro-7-[2-(1-{6-[5-(1-methylcyclopropoxy)-1H-indazol-3-yl]pyrimidin-4-yl}piperidin-4-yl)ethyl]-2,7-diazaspiro[3.5]nonan-2-yl}-4-methoxy-1-oxo-2,3-dihydro-1H-isoindol-2-yl)piperidine-2,6-dione]",–
–,–,50 to 70,< 0.01,"CC1(Oc2ccc3n[nH]c(-c4cc(N5CCC(O[C@H]6C[C@H](CN7CCN(c8ccc9c(c8F)CN(C8CCC(=O)NC8=O)C9=O)CC7)C6)CC5)ncn4)c3c2)CC1 (some centres unmarked) [Compound 351, 3-[4-fluoro-1-oxo-5-(4-{[(1r,3r)-3-[(1-{6-[5-(1-methylcyclopropoxy)-2H-indazol-3-yl]pyrimidin-4-yl}piperidin-4-yl)oxy]cyclobutyl]methyl}piperazin-1-yl)-2,3-dihydro-1H-isoindol-2-yl]piperidine-2,6-dione]",–
< 0.01,≥ 70,–,–,"CC1(Oc2cc3c(-c4cc(N5CCN(C[C@H]6CC[C@H](CN7CCN(c8ccc9c(c8F)CN(C8CCC(=O)NC8=O)C9=O)CC7)CC6)CC5)ncn4)n[nH]c3cc2F)CC1 (some centres unmarked) [Compound 203, 3-[4-fluoro-1-oxo-5-(4-{[(1r,4r)-4-[(4-{6-[6-fluoro-5-(1-methylcyclopropoxy)-1H-indazol-3-yl]pyrimidin-4-yl}piperazin-1-yl)methyl]cyclohexyl]methyl}piperazin-1-yl)-2,3-dihydro-1H-isoindol-2-yl]piperidine-2,6-dione]",–
–,–,≥ 70,< 0.01,"COc1c(N2CCC(CN3CCN(CC4CCN(c5cc(-c6n[nH]c7ccc(OC8(C)CC8)cc67)ncn5)CC4)C[C@H]3C)CC2)ccc2c1CN(C1CCC(=O)NC1=O)C2=O (stereo partly drawn) [Compound 285, 3-[4-methoxy-5-(4-{[(2R)-2-methyl-4-[(1-{6-[5-(1-methylcyclopropoxy)-1H-indazol-3-yl]pyrimidin-4-yl}piperidin-4-yl)methyl]piperazin-1-yl]methyl}piperidin-1-yl)-1-oxo-2,3-dihydro-1H-isoindol-2-yl]piperidine-2,6-dione]",–
< 0.01,50 to 70,–,–,"CC1(Oc2ccc3[nH]nc(-c4cc(N5CCC(CN6CCN(CC7CCN(c8c(F)cc9c(c8F)CN(C8CCC(=O)NC8=O)C9=O)CC7)CC6)CC5)ncn4)c3c2)CC1 (centres unmarked) [Compound 219, 3-[4,6-difluoro-5-[4-[[4-[[1-[6-[5-(1-methylcyclopropoxy)-1H-indazol-3-yl]pyrimidin-4-yl]-4-piperidyl]methyl]piperazin-1-yl]methyl]-1-piperidyl]-1-oxo-isoindolin-2-yl]piperidine-2,6-dione]",–
–,–,50 to 70,< 0.01,"COc1c(N2CCC(O[C@H]3CCN(CC4CCN(c5cc(-c6n[nH]c7ccc(OC8(C)CC8)cc67)ncn5)CC4)C(C)(C)C3)CC2)ccc2c1CN(C1CCC(=O)NC1=O)C2=O (stereo partly drawn) [Compound 316, 3-[5-(4-{[(4S)-2,2-dimethyl-1-[(1-{6-[5-(1-methylcyclopropoxy)-1H-indazol-3-yl]pyrimidin-4-yl}piperidin-4-yl)methyl]piperidin-4-yl]oxy}piperidin-1-yl)-4-methoxy-1-oxo-2,3-dihydro-1H-isoindol-2-yl]piperidine-2,6-dione]",–
